# Patent EP4617273A1, “FUSED TRICYCLIC PARP1 INHIBITOR, PREPARATION METHOD THEREFOR, AND USE THEREOF” (Haihe Biopharma Co., Ltd., priority 2022, dated 2024)
# Read-outs that look alike come from different tables or passages of the source.
# How the values were obtained:
# [1] = target: T1, recombinant human PARP2 protein (Homo sapiens, UniProt Q9UGN5); test: PARP2 enzymatic inhibitory activity, histone substrate, chemiluminescent ELISA; assay type: biochemical
# T1 construct: purchased BPS 80502
# Protocol: The PARP2 inhibitory activity assay was performed as in Experimental Method 1, except that PARP1 solution in step 2 of "3. Ribosylation reaction" was replaced with recombinant human PARP2 solution, and 500 µM NAD+ was not added in step 5 of the ribosylation reaction. Table 1. IC50 for inhibition of PARP1/2 enzymes by compounds of the present invention
# [2] = target: T2, Recombinant human PARP1 protein (Homo sapiens, UniProt P09874); test: biochemical
# Protocol: (§1) The PARP1/2 inhibitory activity of the compounds of the present invention was tested in an assay using Histone as a substrate.
# (§2) Aim of the assay: to test the PARP1/2 enzymatic activity inhibition IC50 values of the compounds of the present application according to established experimental methods.
# (§3) 1. Compound Configuration: Dilute the compounds with DMSO in 384-well plates to a 1000-fold final concentration and set aside.
# (§4) 1) Dilute Histone with PBS, add 25uL of Histone mixture to each well and incubate for 2 h. 2) Wash each well 5 times using PBST solution. Remove the solution with a clean paper towel.3) Add 75 uL of Blocking buffer to each well and incubate for 1 h at rt. 4) Wash each well 5 times using PBST solution. Remove the solution with a clean paper towel.
# (§5) 2) Use 1× Assay buffer to prepare 2.5× final concentration of PARP1 solution. 3) Add 10 uL of enzyme solution to the compound wells and Max control wells; add 10 uL of 1× Assay buffer. […] 6) Centrifuge at 1000 rpm for 60 seconds and incubate at rt for 2 h. 7) Each well was washed 5 times with PBST solution. Remove the solution with a clean paper towel.
# (§6) 1) Prepare Streptavidin-HRP solution, add 25 µL to each well, centrifuge at 1000 rpm for 60 sec, and incubate at rt for 30 min. 2) Wash each well 5 times using PBST solution. Remove the solution with a clean paper towel. 3) Add 50 µL of ELISA Chemiluminescent Substrate per well. 4) Centrifuge at 1000 rpm for 60 seconds and read with EnSight after 5 min.
# (§7) The inhibition rate was calculated using the following formula: % inhibition = (max signal - compound signal) / (max signal - min signal) × 100, where 'min signal' is the mean value of negative control wells and 'max signal' is the mean value of positive control wells.
# (§8) Fitting the quantitative effect curve: using the log value of the concentration as the X-axis and the percentage inhibition as the Y-axis; using the log(inhibitor) vs. response-variable slope method in software GraphPadPrism5 to fit the quantitative effect curve to calculate the IC50 value for the inhibition of the enzyme activity by the compounds of the present invention. The fitting formula is: Y=Bottom+ (Top-Bottom)/(1+10^((logIC50-X)*HillSlope)).
# [3] = target: T2, Recombinant human PARP1 protein; test: PARP1 enzymatic inhibitory activity, histone substrate, chemiluminescent ELISA; conditions: PARP2 IC50 over PARP1 IC50
# Protocol: as §1, §2, §3, §4, §5, §6, §7, §8
# MDA-MB-436 cells = test: MDA-MB-436 cell proliferation inhibition test (CellTiter-Glo, 7 days); assay type: cell-based; conditions: Homo sapiens, MDA-MB-436, 168 h, 7 days incubation
# Protocol: Human breast cancer MDA-MB-436 (purchased from ATCC) cells were cultured in DMEM medium (supplemented with 10% fetal bovine serum with 1% dual antibody) at 37 °C, 5% CO2. The cells were taken from the logarithmic growth phase, digested and prepare cell suspension witha certain concentration, which was inoculated into 96-well plates. 100 µL of cell suspension was added to each well of the 96-well plates, incubated overnight, then different concentrations of compounds were added, and the cells were incubated in the cell culture incubator for 7 days. At the end of incubation, 50 µL of CellTiter-Glo reagent was added to each well, mixed with a microplate and shaked for 2 min, and left at rt for 60 min, then the fluorescence value was read with a Spark® multimode microplate reader. […] Table 2. proliferation inhibitory activity of compounds of the present invention on MDA-MB-436 cells
# [4] = histone substrate, 500 µM NAD+ not added, read-out: PARP2 IC50
# T2 sequence (P09874 whole entry): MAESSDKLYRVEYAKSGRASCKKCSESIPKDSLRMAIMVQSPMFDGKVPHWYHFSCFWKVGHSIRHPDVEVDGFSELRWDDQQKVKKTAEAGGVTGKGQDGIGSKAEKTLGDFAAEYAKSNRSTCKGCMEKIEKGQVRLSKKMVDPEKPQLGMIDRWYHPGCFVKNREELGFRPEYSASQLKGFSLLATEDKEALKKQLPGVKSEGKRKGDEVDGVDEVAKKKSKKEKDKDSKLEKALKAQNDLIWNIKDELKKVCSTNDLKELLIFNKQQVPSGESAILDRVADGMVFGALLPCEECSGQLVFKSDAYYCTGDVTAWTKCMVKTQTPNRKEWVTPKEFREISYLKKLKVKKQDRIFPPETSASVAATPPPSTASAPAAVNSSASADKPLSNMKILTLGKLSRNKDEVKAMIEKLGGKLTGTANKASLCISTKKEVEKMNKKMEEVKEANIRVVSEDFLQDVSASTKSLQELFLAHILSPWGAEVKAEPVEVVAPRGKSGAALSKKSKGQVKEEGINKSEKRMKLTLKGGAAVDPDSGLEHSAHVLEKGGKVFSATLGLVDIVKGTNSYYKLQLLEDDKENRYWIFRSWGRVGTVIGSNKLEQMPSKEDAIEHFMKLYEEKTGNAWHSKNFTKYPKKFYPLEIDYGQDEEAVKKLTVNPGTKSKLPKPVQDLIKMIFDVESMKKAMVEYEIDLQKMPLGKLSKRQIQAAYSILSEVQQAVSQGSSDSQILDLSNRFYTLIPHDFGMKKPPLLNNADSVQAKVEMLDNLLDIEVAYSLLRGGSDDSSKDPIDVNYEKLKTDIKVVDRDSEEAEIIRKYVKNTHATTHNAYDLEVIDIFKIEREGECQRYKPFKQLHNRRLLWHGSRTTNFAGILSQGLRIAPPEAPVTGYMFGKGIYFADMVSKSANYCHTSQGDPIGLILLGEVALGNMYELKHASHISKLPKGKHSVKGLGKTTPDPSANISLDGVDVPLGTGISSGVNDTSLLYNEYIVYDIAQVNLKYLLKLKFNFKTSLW
# T1 sequence (Q9UGN5 whole entry): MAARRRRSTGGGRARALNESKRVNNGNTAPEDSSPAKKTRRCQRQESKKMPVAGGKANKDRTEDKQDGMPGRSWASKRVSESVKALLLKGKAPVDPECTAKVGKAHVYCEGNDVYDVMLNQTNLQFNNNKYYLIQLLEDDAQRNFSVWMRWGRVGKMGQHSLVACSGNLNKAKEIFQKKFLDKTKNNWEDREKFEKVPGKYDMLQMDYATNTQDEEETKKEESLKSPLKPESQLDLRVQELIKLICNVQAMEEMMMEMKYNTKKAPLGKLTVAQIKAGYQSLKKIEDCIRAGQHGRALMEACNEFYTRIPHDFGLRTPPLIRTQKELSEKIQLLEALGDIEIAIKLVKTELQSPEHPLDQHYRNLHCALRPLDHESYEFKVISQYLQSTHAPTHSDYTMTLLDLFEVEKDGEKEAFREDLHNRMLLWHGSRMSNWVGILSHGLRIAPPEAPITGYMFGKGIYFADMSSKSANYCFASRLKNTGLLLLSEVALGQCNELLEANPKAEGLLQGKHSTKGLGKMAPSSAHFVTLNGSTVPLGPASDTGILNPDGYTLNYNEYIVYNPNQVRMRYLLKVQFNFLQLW
"IC50 [1, 4]",IC50 [2],PARP1/2 Fold selectivity [3],IC50 (MDA-MB-436 cells),SMILES,IC50 [1]
17.3 nM,0.15 nM,115.3,,CNC(=O)c1ccc(N2CCN(C(C)c3ccc4c(c3)[nH]c(=O)c3cccn34)CC2)c(F)n1 (stereo not drawn) [Compound 5],
21.7 nM,0.42 nM,51.7,,CNC(=O)c1ccc(N2CCN(C(C)c3ccc4c(c3)[nH]c(=O)c3cccn34)CC2)cn1 (stereo not drawn) [Compound 6],
204 nM,0.38 nM,536.3,,CNC(=O)c1ccc(N2CCN(C(C)c3ccc4c([nH]c(=O)c5cccn54)c3F)CC2)c(F)n1 (stereo not drawn) [Compound 7],
118 nM,2.04 nM,57.9,,CNC(=O)c1ccc(N2CCN(C(C)c3ccc4c([nH]c(=O)c5cccn54)c3F)CC2)cn1 (stereo not drawn) [Compound 8],
214 nM,0.57 nM,374.9,< 1.52 nM,CNC(=O)c1ccc(N2CCN(C(C)c3ccc4c(c3)[nH]c(=O)c3ccnn34)CC2)c(F)n1 (stereo not drawn) [Compound 12],
3150 nM,2.87 nM,1098.6,,CNC(=O)c1ccc(N2CCN(C(C)c3ccc4c([nH]c(=O)c5ccnn54)c3F)CC2)c(F)n1 (stereo not drawn) [Compound 13],
313 nM,3.6 nM,86.8,,CNC(=O)c1ccc(N2CCN(C(C)c3ccc4c(c3)[nH]c(=O)c3cnn(C)c34)CC2)c(F)n1 (stereo not drawn) [Compound 15],
358 nM,0.8 nM,447.6,4.6 nM,CNC(=O)c1ccc(N2CCN(Cc3ccc4c(c3)[nH]c(=O)c3nn(C)cc34)CC2)c(F)n1 [Compound 22],
780 nM,1.83 nM,426.4,,CCNC(=O)c1ccc(N2CCN(Cc3ccc4c(c3F)NC(=O)N3C[C@@H](C)N=C43)CC2)c(C)n1 [Compound 34],
1870 nM,16.5 nM,113.5,,CNC(=O)c1ccc(OC2CCN(Cc3ccc4c(c3)[nH]c(=O)c3ccnn34)C2)cn1 (stereo not drawn) [Compound 75],
,1.7 nM,,9.3 nM,CNC(=O)c1ccc(N2CCN(Cc3ccc4c(c3)[nH]c(=O)c3cn(C)nc34)CC2)c(F)n1 [Compound 101],
522 nM,1 nM,521.6,3.7 nM,CNC(=O)c1ccc(N2CCN(Cc3ccc4c(c3)[nH]c(=O)c3nc(C)oc34)CC2)c(F)n1 [Compound 102],
829 nM,0.9 nM,922.1,1.4 nM,CNC(=O)c1ccc(N2CCN(Cc3ccc4c(c3)[nH]c(=O)c3nc(C)sc34)CC2)c(F)n1 [Compound 103],
1300 nM,0.8 nM,1626.3,< 1.52 nM,CNC(=O)c1ccc(N2CCN(Cc3ccc4c([nH]c(=O)c5ccnn54)c3F)CC2)c(Cl)n1 [Compound 113],
,0.8 nM,,27.4 nM,CNC(=O)c1ccc(N2CCN(Cc3ccc4c(c3F)NC(=O)N3CCN=C43)CC2)c(F)n1 [Compound 123],
561 nM,1.07 nM,524.6,,CNC(=O)c1ccc(N2CCN(Cc3ccc4c(c3)NC(=O)N3CCN=C43)CC2)c(F)n1 [Compound 124],
,1.3 nM,,5.4 nM,CNC(=O)c1ccc(N2CCN(Cc3ccc4c(c3F)NC(=O)N3CCN=C43)CC2)c(Cl)n1 [Compound 126],
,,,< 1.52 nM,CNC(=O)c1ccc(N2CCN(Cc3ccc4c(c3F)NC(=O)N3CCN=C43)CC2)c(C)n1 [Compound 129],
1280 nM,1.2 nM,1064,15.3 nM,CNC(=O)c1ccc(N2CCN(Cc3ccc4c(c3F)NC(=O)N3CC(C)N=C43)CC2)c(F)n1 (stereo not drawn) [Compound 131],
,1.2 nM,,28.7 nM,CNC(=O)c1ccc(N2CCN(Cc3ccc4c(c3F)NC(=O)N3C[C@H](C)N=C43)CC2)c(F)n1 [Compound 133],
3680 nM,2.8 nM,1313.2,,CNC(=O)c1ccc(N2CCN(Cc3ccc4c(c3Cl)NC(=O)N3CCN=C43)CC2)c(F)n1 [Compound 134],
8870 nM,11.3 nM,785,,CNC(=O)c1ccc(N2CCN(Cc3ccc4c(c3F)NC(=O)N3CC(C)(C)N=C43)CC2)c(F)n1 [Compound 136],
1400 nM,1.8 nM,466.3,22.6 nM,CNC(=O)c1ccc(N2CCN(Cc3ccc4c(c3F)NC(=O)N3C4=NC[C@@H]3C)CC2)c(F)n1 [Compound 137],

"IC50 [1, 4]",IC50 [2],PARP1/2 Fold selectivity [3],IC50 (MDA-MB-436 cells),SMILES,IC50 [1]
,1.5 nM,,12.8 nM,CNC(=O)c1ccc(N2CCN(Cc3ccc4c(c3F)NC(=O)N3CCCN=C43)CC2)c(C)n1 [Compound 140],
> 10000 nM,5.6 nM,>1756,,CNC(=O)c1ccc(N2CCN(Cc3ccc4c(c3F)NC(=O)N3CC[C@H](C)N=C43)CC2)c(F)n1 [Compound 142],
> 10000 nM,5.2 nM,>1923,,CNC(=O)c1ccc(N2CCN(Cc3ccc4c(c3F)NC(=O)N3CC(C)CN=C43)CC2)c(F)n1 (stereo not drawn) [Compound 144],
,0.6 nM,,8.9 nM,CNC(=O)c1ccc(N2CCN(Cc3ccc4c(c3F)NC(=O)N3C[C@H](F)CN=C43)CC2)c(C)n1 [Compound 145],
,,,12.4 nM,CNC(=O)c1ccc(N2CCN(Cc3ccc4c(c3F)NC(=O)N3C[C@H](F)CN=C43)CC2)c(Cl)n1 [Compound 146],
278 nM,1 nM,277.7,2.1 nM,CNC(=O)c1ccc(N2CCN(Cc3ccc4c(c3F)NC(=O)N3C[C@H](F)CN=C43)CC2)c(F)n1 [Compound 147],
,,,3.6 nM,CNC(=O)c1ccc(N2CCN(Cc3ccc4c(c3F)NC(=O)N3CC(F)(F)CN=C43)CC2)c(F)n1 [Compound 148],
> 10000 nM,17.6 nM,>568,,CNC(=O)c1ccc(N2CCN(Cc3ccc4c(c3F)NC(=O)N3C4=NCCC3C)CC2)c(F)n1 (stereo not drawn) [Compound 150],
,1.1 nM,,17.5 nM,CNC(=O)c1ccc(N2CCN(Cc3ccc4c(c3F)NC(=O)N3C[C@H](C)N=C43)CC2)c(C)n1 [Compound 151],
,1.5 nM,,21.5 nM,CNC(=O)c1ccc(N2CCN(Cc3ccc4c(c3F)NC(=O)N3C[C@H](C)N=C43)CC2)c(Cl)n1 [Compound 152],
,1.3 nM,,8.1 nM,CNC(=O)c1ccc(N2CCN(Cc3ccc4c(c3F)NC(=O)N3C[C@@H](C)N=C43)CC2)c(C)n1 [Compound 153],
893 nM,1.46 nM,611.4,,CNC(=O)c1ccc(N2CCN(Cc3ccc4c(c3F)NC(=O)N3C4=NC[C@@H]3C)CC2)c(C)n1 [Compound 155],
97.5 nM,0.47 nM,207.4,2.2 nM,CNC(=O)c1ccc(N2CCN(Cc3ccc4c(c3F)NC(=O)N3CC(F)(F)CN=C43)CC2)c(Cl)n1 [Compound 159],
,0.7 nM,,5.7 nM,CCNC(=O)c1ccc(N2CCN(Cc3ccc4c(c3F)NC(=O)N3C[C@@H](C)N=C43)CC2)c(F)n1 [Compound 172],
514 nM,0.95 nM,541.5,,CNC(=O)c1ccc(N2CCN(C(C)c3ccc4c(c3F)NC(=O)N3CC5(CC5)N=C43)CC2)c(F)n1 (stereo not drawn) [Compound 173],
547 nM,1.83 nM,299,,O=C(NC1CC1)c1ccc(N2CCN(Cc3ccc4c(c3F)NC(=O)N3CCCN=C43)CC2)c(F)n1 [Compound 182],
,0.36 nM,,9.2 nM,CCNC(=O)c1ccc(N2CCN(Cc3ccc4c(c3F)NC(=O)N3CCCN=C43)CC2)c(Cl)n1 [Compound 183],
894 nM,1.09 nM,820.2,,CCNC(=O)c1ccc(N2CCN(Cc3ccc4c(c3F)NC(=O)N3C[C@@H](C)N=C43)CC2)c(Cl)n1 [Compound 185],
,0.58 nM,,6.4 nM,CCNC(=O)c1ccc(N2CCN(Cc3ccc4c(c3F)NC(=O)N3CC(F)(F)CN=C43)CC2)c(F)n1 [Compound 186],
728 nM,1.56 nM,466.3,,N#Cc1ccc(N2CCN(Cc3ccc4c(c3F)NC(=O)N3CCCN=C43)CC2)nc1 [Compound 188],
296 nM,0.9 nM,323,,CNC(=O)c1ccc(N2CCN(Cc3ccc4c(c3)NC(=O)N3CCCN=C43)CC2)c(Cl)n1 [Compound 191],
1550 nM,1.2 nM,1324,,C[C@@H]1CN2C(=O)Nc3c(ccc(CN4CCN(c5ccc(C(=O)NC6CC6)nc5Cl)CC4)c3F)C2=N1 [Compound 201],

SMILES,"IC50 [1, 4]",IC50 [2],PARP1/2 Fold selectivity [3],IC50 (MDA-MB-436 cells),IC50 [1]
CNC(=O)c1ccc(N2CCN(Cc3ccc4c(c3F)NC(=O)N3C[C@@H](F)CN=C43)CC2)c(F)n1 [Compound 149],,1.6 nM,557.9,,893 nM
